According to PMC9784689, “Bioactivity Profiling of In Silico Predicted Linear Toxins from the Ants Myrmica rubra and Myrmica ruginodis” (Toxins, 2022):
No end group written: not given here.

How the values were obtained:
[1] = tested on: Listeria monocytogenes (DSM 20600); details: L. monocytogenes, 100 µM, after 48 h, MH II medium, 37 °C, OD600 normalized to untreated bacteria, triplicate
[2] = tested on: Staphylococcus aureus (DSM 2569); details: at least 95% growth inhibition, nine log2 dilutions, triplicate, MH II, 48 h
Procedure: (§1) Cryo-conserved cultures (Table 3) were transferred with a sterile inoculation loop to tryptic soy agar (TSA) plates (Carl Roth) sealed with Parafilm (BEMIS, Neenah, WI, USA), and were incubated for 1–2 days at 37 °C depending on growth rates. Plates were then stored at 4 °C. For each of the three replicates, single colonies were picked with a sterile pipette tip, transferred into 2–3 mL Mueller-Hinton II (MH II) medium (BD, Heidelberg, Germany) and cultivated for ~24 h in unsealed 15 mL reaction tubes at 37 °C, shaking at 180 rpm. […] We measured the optical density at 600 nm (OD600) by transferring 1 mL of bacterial suspension to a polystyrene cuvette (SARSTED, Nümbrecht, Germany) in an Ultrospec 10 photometer (Biochrome, Cambridge, UK). […]
(§2) The experiments were carried out in 96-multiwell plates with a final volume of 100 µL per well (50 µL of bacterial suspension; 50 µL of testing peptide with a final concentration of 1.9% DMSO). […] The OD600 was measured after 0, 24, and 48 h using a BioTek Eon microplate reader and Gen5 v2.09. One experiment was carried out with automatic OD600 measurement every 20 min with a prior 30 s double orbital rotation at 237 rpm with overall incubation at 37 °C for 60 h in the microplate reader. […]

[3] = tested on: Escherichia coli DE3 (BL21(DE3)); format: cell-based; details: 20 µL per dilution from 48 h MIC experiments plated on TSA, n = 2
[4] = tested on: Escherichia coli DE3 (BL21(DE3)); details: at least 95% growth inhibition, nine log2 dilutions, triplicate, MH II, 48 h
Procedure: as §1, §2

[5] = tested on: Listeria monocytogenes (DSM 20600); format: cell-based; details: 20 µL per dilution from 48 h MIC experiments plated on TSA, n = 2
[6] = tested on: Micrococcus luteus (DSM 20030); details: at least 95% growth inhibition, nine log2 dilutions, triplicate, MH II, 48 h
Procedure: as §1, §2

[7] = tested on: Escherichia coli DE3 (BL21(DE3)); details: E. coli, 100 µM, after 48 h, MH II medium, 37 °C, OD600 normalized to untreated bacteria, triplicate
[8] = tested on: Staphylococcus epidermidis (ATCC 35984; DSM 28319); details: at least 95% growth inhibition, nine log2 dilutions, triplicate, MH II, 48 h
Procedure: as §1, §2

[9] = tested on: Micrococcus luteus (DSM 20030); format: cell-based; details: 20 µL per dilution from 48 h MIC experiments plated on TSA, n = 2
[10] = tested on: Staphylococcus epidermidis (ATCC 35984; DSM 28319); details: S. epidermidis, 100 µM, after 48 h, MH II medium, 37 °C, OD600 normalized to untreated bacteria, triplicate
[11] = tested on: Staphylococcus epidermidis (ATCC 35984; DSM 28319); format: cell-based; details: 20 µL per dilution from 48 h MIC experiments plated on TSA, n = 2
[12] = tested on: Staphylococcus aureus (DSM 2569); details: S. aureus, 100 µM, after 48 h, MH II medium, 37 °C, OD600 normalized to untreated bacteria, triplicate
[13] = tested on: Micrococcus luteus (DSM 20030); details: M. luteus, 100 µM, after 48 h, MH II medium, 37 °C, OD600 normalized to untreated bacteria, triplicate
MDCK II cells = details: MDCK II cells, 100 µM, 1% DMSO, 48 h, CellTiter-Glo luminescence, triplicate

INPKLWLKLF-NH2 [U-MYRTX-Mrug5a]
Inhibition of growth [1]: 81%
MIC [2]: 100 µM
MBC [3]: 50 µM
MIC [4]: 50 µM
MBC [5]: 50 µM
MIC [6]: 6.25 µM
Inhibition of growth [7]: 97%
MIC [8]: 50 µM
MBC [9]: 6.25 µM
Inhibition of growth [10]: 97%
MBC [11]: 50 µM
Inhibition of growth [12]: 96%
Inhibition of growth [13]: 89%
Cytotoxicity (cell viability), in words (MDCK II cells): negligible cytotoxicity
